Where two headings read alike, the source gives them in different places.
Experiments:
bcl-2 = assay: Expression of the antiapoptotic gene bcl-2 in the hippocampus of ovariectomised rats; assay type: in vivo, Ratten; conditions: female ovariectomised rats; vs OVX control (p<0.01); Abbildung 4
[1] = test system: Oxytocin (Nachweis der OT mRNA); assay: Induction of the estrogen-dependent oxytocin gene (OT mRNA) in the brain of ovariectomised rats; assay type: in vivo, Ratten; conditions: brain of female ovariectomised rats; Abbildung 3
Description: (§1) In Abbildung 3 werden zwei weitere Beispiele für typische Estrogenwirkungen im Gehirn von weiblichen, ovarektomierten Ratten dargestellt. […] (* Bedeutet statistisch signifikant gegenüber der Kontrollgruppe (p<0.01))

[2] = test system: Corticotropin-Releaseinghormon (Nachweis der CRH mRNA); assay: Induction of the estrogen-dependent CRH gene (CRH mRNA) in the brain of ovariectomised rats; assay type: in vivo, Ratten; conditions: brain of female ovariectomised rats; Abbildung 3
Description: as §1

[3] = Stabilisation of the unstable steroids in drug formulations by stabilisers; assay type: physicochemical
Description: Eine hinreichende Haltbarkeit der an sich sehr instabilen Steroide in Arzneimittelformulierungen wird insbesondere erreicht, wenn ein Stabilisator vorliegt. […] In einer bevorzugten Ausführungsform des erfindungsgemäßen Arzneimittels wird deshalb das Steroid mit Ascorbinsäure stabilisiert. […] Die Konzentration des Stabilisators Ascorbinsäure ist vom Gehalt des Steroids abhängig. Je nach dessen Gehalt werden bei Weichgelatinekapseln 0,1 % bis 1 % Ascorbinsäure, bezogen auf die Füllmasse, eingesetzt.

[4] = 100 mg/Tag oral; Arlt et al., New Engl J Med 1999; cited from earlier work
[5] = Clinical study in healthy women: serum testosterone after oral DHEA, with dexamethasone suppression; assay type: in vivo, Frauen; conditions: single dose of dexamethasone, 100 mg DHEA oral, Abbildung 5
Description: In Abbildung 5 werden daher Ergebnisse einer klinischen Studie mit gesunden Frauen dargestellt. Zur kurzzeitigen Unterdrückung der körpereigenen Steroidproduktion erhielten die Probandinnen einmalig Dexamethason. […] Damit ist der Nachweis geführt, daß DHEA bei Frauen nach oraler Aufnahme im Körper zu dem sehr wirksamen Androgen Testosteron umgewandelt wird, d.h. DHEA ist bei Frauen ein Prodrug für Testosteron.

[6] = test system: induzierbaren Stickstoffmonoxid-Oxidase (iNOS); assay: Inhibition of NO release (iNOS) in the brain of ovariectomised rats; assay type: in vivo, Ratten; conditions: female ovariectomised rats; compared with 17β-Estradiol; Abbildung 2; significant vs OVX control (p<0.01)
Description: Eine der typischen Estrogenwirkungen im Gehirn ist die Hemmung der induzierbaren […] (iNOS). […] Die Kontrollgruppe sind ovarektomierte Tiere (OVX), die nur mit dem Lösungsmittel behandelt worden sind. (* Bedeutet statistisch signifikant gegenüber der Kontrollgruppe (p<0.01))

Uterus = assay: Estrogenic effect on the uterus (uterine mass) of ovariectomised rats; assay type: in vivo, Ratten; conditions: female ovariectomised rats, in contrast to 17β-Estradiol; for estrogene Wirkung auf den Uterus (Zunahme der Uterusmasse): Abbildung 3

SMILES | Expression des antiapoptotischen Gens bcl-2 im Hippocampus (bcl-2) | Induktion der estrogenabhängigen Gene für Oxytocin (OT mRNA) [1] | Induktion der estrogenabhängigen Gene für Corticotropin-Releaseinghormon (CRH mRNA) [2] | stabilisierende Wirkung (Haltbarkeit der Steroide in Arzneimittelformulierungen) [3] | other results
C[C@]12CC[C@@H]3c4ccc(O)cc4CC[C@H]3[C@@H]1CC[C@H]2O [17α-Estradiol] | im Gegensatz | – | – | – | –
C[C@]12CC[C@@H]3c4ccc(O)cc4CC[C@H]3[C@@H]1CC[C@@H]2O [17β-Estradiol, reference compound] | signifikant erhöht | gelingt | gelingt | – | –
O=C1O[C@H]([C@@H](O)CO)C(O)=C1O [Ascorbinsäure] | – | – | – | – | stabilisierende Wirkung (Haltbarkeit der Steroide in Arzneimittelformulierungen) ([3]; stabiliser added to the steroid formulation): besonders wirksam
CCCCCCCCCCCCCCCC(=O)OC[C@H](O)[C@H]1OC(=O)C(O)=C1O [Ascorbylpalmitat] | – | – | – | deutlich weniger effektiv | –
COc1ccc(O)c(C(C)(C)C)c1 [Butylhydroxyanisol] | – | – | – | deutlich weniger effektiv | –
Cc1cc(C(C)(C)C)c(O)c(C(C)(C)C)c1 [Butylhydroxytoluol] | – | – | – | deutlich weniger effektiv | –
C[C@]12CC[C@H](O)CC1=CC[C@@H]1[C@@H]2CC[C@]2(C)C(=O)CC[C@@H]12 [DHEA, Dehydroepiandrosteron] | – | – | – | – | unerwünschte Virilisierungserscheinungen [4]: keine unerwünschten Virilisierungserscheinungen; Serum-Testosteronkonzentrationen [5]: auf das Niveau der unbehandelten Kontrollen hebt
C[C@]12CCC3=C(CCc4cc(O)ccc43)[C@@H]1CC[C@H]2O [J 811, Estra-1,3,5(10),8-tetraen-3,17α-diol] | – | gelingt | gelingt | – | Hemmung der Freisetzung von NO [6]: genauso stark wie bei dem wichtigsten körpereigenen Estrogen, dem 17β-Estradiol; estrogene Wirkung auf den Uterus (Zunahme der Uterusmasse) (Uterus): nicht nachweisbar
C[C@]12CCC3=C(CCc4cc(O)ccc43)[C@@]13C[C@H]3C[C@H]2O [J 861, 14α, 15α-Methylenestra-1,3,5(10),8-tetraen-3,17α-diol] | signifikant erhöht | gelingt | gelingt | – | Hemmung der Freisetzung von NO [6]: genauso stark wie bei dem wichtigsten körpereigenen Estrogen, dem 17β-Estradiol; estrogene Wirkung auf den Uterus (Zunahme der Uterusmasse) (Uterus): nicht nachweisbar; Wirkung auf den Uterus (Uterus; Abbildung 4): keinerlei Wirkung auf den Uterus
